Bounds are passed on as bounds.

The target of one test is T1, Chymase (Homo sapiens, UniProt P23946).
T1 sequence (P23946 whole entry): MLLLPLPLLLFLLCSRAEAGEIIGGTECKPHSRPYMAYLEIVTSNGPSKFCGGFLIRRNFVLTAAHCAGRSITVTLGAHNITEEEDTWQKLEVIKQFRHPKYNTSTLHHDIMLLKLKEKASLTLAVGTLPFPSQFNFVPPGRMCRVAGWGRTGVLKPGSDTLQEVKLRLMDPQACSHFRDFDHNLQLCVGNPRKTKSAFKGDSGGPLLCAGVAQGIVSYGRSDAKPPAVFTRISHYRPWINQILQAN
The test is described as follows: In vitro inhibitory activity against human chymase.
A word on the IC50: it is the concentration needed to halve the response being measured. A high value points to weaker potency in that assay. `COC(=O)c1ccc(NS(=O)(=O)c2sc3ccc(C)cc3c2C)c(S(C)(=O)=O)c1` displayed a 50% inhibitory concentration (IC50) of 0.325 µM.
Still for that read-out and setting: next, `COC(=O)c1ccc(NS(=O)(=O)c2sc3ccc(Cl)cc3c2C)c(S(C)(=O)=O)c1C`: 0.594 µM; `Cc1c(S(=O)(=O)Nc2ccc(C(N)=O)cc2S(C)(=O)=O)sc2ccc(F)cc12`: over 1 µM.
Same read-out and setting: next, `Cc1c(S(=O)(=O)Nc2ccc(C=O)cc2S(C)(=O)=O)sc2ccc(F)cc12`: over 1 µM; `CCCS(=O)(=O)c1ccc(NS(=O)(=O)c2sc3ccc(Cl)cc3c2C)cc1`: 10.6 µM.
On the same count and under the same terms, next, `Cc1c(S(=O)(=O)Nc2ccc(C(=O)O)cc2S(C)(=O)=O)sc2ccc(F)cc12`: over 1 µM; `Cc1c(S(=O)(=O)Nc2ccc(CO)cc2S(C)(=O)=O)sc2ccc(F)cc12`: 0.337 µM.
On to `COCc1ccc(NS(=O)(=O)c2sc3ccc(F)cc3c2C)c(S(C)(=O)=O)c1`, for which the half-inhibitory concentration (IC50) was 0.192 µM.

Another test deals with T1, Chymase. The test is described as follows: In vitro inhibitory activity against human chymase; NI Indicates no inhibition at 10 uM.
Regarding `CCCSc1ccc(NS(=O)(=O)c2sc3ccc(Cl)cc3c2C)cc1`, the half-maximal inhibitory concentration (IC50) entry is listed as “No inhibition”.
With `Cc1c(S(=O)(=O)Nc2ccc(C#N)cc2)sc2ccc(Cl)cc12`, the IC50 entry was “No inhibition”.
As for `Cc1c(S(=O)(=O)Nc2ccc([N+](=O)[O-])cc2)sc2ccc(Cl)cc12`, the concentration for half-maximal inhibition (IC50) entry is recorded as “No inhibition”.
For the molecule `COC(=O)c1ccc(NS(=O)(=O)c2sc3ccc(Cl)cc3c2C)c(C(=O)OC)c1`, the IC50 entry is “No inhibition”.

A further test has as its target T2, Cathepsin G (Homo sapiens, UniProt P08311).
T2 sequence (P08311 whole entry): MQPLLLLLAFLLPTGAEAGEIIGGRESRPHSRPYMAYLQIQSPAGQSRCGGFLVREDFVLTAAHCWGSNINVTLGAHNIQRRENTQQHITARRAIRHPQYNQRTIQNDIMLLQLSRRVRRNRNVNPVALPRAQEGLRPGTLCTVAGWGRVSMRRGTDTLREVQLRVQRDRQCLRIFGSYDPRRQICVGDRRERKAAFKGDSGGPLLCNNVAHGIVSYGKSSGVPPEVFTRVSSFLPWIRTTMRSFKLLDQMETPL
The test is described as follows: In vitro inhibitory activity against human cathepsin G.
With `CC(=O)c1ccc(NS(=O)(=O)c2sc3ccc(F)cc3c2C)c(S(C)(=O)=O)c1`, the IC50 was over 10 µM.
In turn, `COC(=O)c1ccc(NS(=O)(=O)c2sc3ccc(Cl)cc3c2C)c(S(C)(=O)=O)c1` had an IC50 of over 10 µM.
The molecule `COC(=O)c1ccc(NS(=O)(=O)c2sc3ccc(F)cc3c2C)c(S(C)(=O)=O)c1` showed an IC50 of over 10 µM.

For the next test, the species on record is Rattus norvegicus. The test is described as follows: Percentage of compound present in rat plasma after incubation for 60 min at 37 degree C. The class given is functional, organism-based.
Molecule `CC(=O)c1ccc(NS(=O)(=O)c2sc3ccc(F)cc3c2C)c(S(C)(=O)=O)c1` came in with a Stability of 96.2%.
On the same count and under the same terms, next, `COC(=O)c1ccc(NS(=O)(=O)c2sc3ccc(Cl)cc3c2C)c(S(C)(=O)=O)c1`: 93.9%.
Molecule `COC(=O)c1ccc(NS(=O)(=O)c2sc3ccc(F)cc3c2C)c(S(C)(=O)=O)c1` registered a Stability of 74.3%.

Molecular target in the next test: not listed separately
The test is described as follows: In vitro inhibitory activity against human elastase.
`CC(=O)c1ccc(NS(=O)(=O)c2sc3ccc(F)cc3c2C)c(S(C)(=O)=O)c1`: the IC50 was over 10 µM.
Regarding `COC(=O)c1ccc(NS(=O)(=O)c2sc3ccc(Cl)cc3c2C)c(S(C)(=O)=O)c1`, the concentration for half-maximal inhibition (IC50) was over 10 µM.
Consider `COC(=O)c1ccc(NS(=O)(=O)c2sc3ccc(F)cc3c2C)c(S(C)(=O)=O)c1`, for which the half-inhibitory concentration (IC50) was over 10 µM.

The values are drawn from ChEMBL document CHEMBL1136443, “Structure-activity relationship of benzo[b]thiophene-2-sulfonamide derivatives as novel human chymase inhibitors” (Bioorg Med Chem Lett, 2003).
